From publication PMC6220303 (EMBO Molecular Medicine, 2018)

Experiments:
APP23 mice = settings: APP23, mouse, in vivo, 3 months
C57/BL6 mice = assay: Hair depigmentation study, 8 weeks dosing; format: in vivo, mouse
Description: Compounds were either mixed in feed or given as a suspension orally. […] Vehicle or compounds were given orally in a volume of 10 ml/kg once daily (mornings) for 8 weeks. Vehicle: 0.1% Tween‐80 in 0.5% methylcellulose in water. […] The vehicle group was treated with food pellets containing no compound. The β1 antibody was dosed 0.5 mg/kg body weight, once weekly intraperitoneally, diluted in 90 nM NaCl, 50 nM Tris pH 7.1.

[1] = system: healthy participants ≥ 60 years; assay: Adverse events after once-daily dosing over two weeks (Appendix Table S7); format: in vivo, human
Description: For further details, see the Appendix Table S10 in Appendix and the accompanying clinical protocols synopsis (Appendix Table S11).
Appendix Table S3. Overview of completed clinical studies with CNP520
Study description Population No. of Participants Dose/Frequency […]
First-in-human, randomized, 18-55 yrs 38 / 14 Single dose (10, 30, 90, […]
controlled, single and multiple CNP520 vs placebo) ascending oral dose study to Single dose (10, 90, 300,

C[C@@]1(c2nc(NC(=O)c3ncc(C(F)(F)F)cc3Cl)ccc2F)CO[C@@](C)(C(F)(F)F)C(N)=N1 [CNP520]
Hemorrhage (H & E staining) % affected (APP23 mice): 7%
Hemorrhage (H & E staining) Grade 1, number of animals affected (APP23 mice): 1
Hemorrhage (H & E staining) Grade 2, number of animals affected (APP23 mice): 0
Hemosiderin (Perl’s staining) % affected (APP23 mice): 47%
Hemosiderin (Perl’s staining) Grade 1, number of animals affected (APP23 mice): 7
Hemosiderin (Perl’s staining) Grade 2, number of animals affected (APP23 mice): 0
changes in other pigmented organs (hair follicle, choroid, retina pigmented epithelium) by histopathology (C57/BL6 mice; C57/BL6 mice, 8 weeks): Neither did we observe any changes in other pigmented organs
Aβ40 reduction in the brain (C57/BL6 mice; at doses with no change in hair color): more than 90%
hair depigmentation / change in hair color (C57/BL6 mice; male C57/BL6 mice, 8 weeks oral once daily): No change in hair color
AE incidence: Respiratory, thoracic and mediastinal disorders ([1]; 10 mg once daily, N = 9): 1 (11.1) n (%)
Participants with any AE(s) ([1]; 10 mg once daily, N = 9): 6 (66.7) n (%)
AE incidence: Renal and urinary disorders ([1]; 30 mg once daily, N = 9): 0 (0.0) n (%)
AE incidence: Ear and labyrinth disorders ([1]; 300 mg once daily, N = 8): 0 (0.0) n (%)
